Data taken from article PMC8667904, “Searching for drug leads targeted to the hydrophobic cleft of dengue virus capsid protein” (Journal of Enzyme Inhibition and Medicinal Chemistry, 2021).

molecular target: T1, DENVC (dengue virus capsid protein) (Dengue virus 2 Thailand/NGS-C/1944, UniProt P14340); test: intrinsic tryptophan fluorescence titration, shift of emission maximum; type: binding
T1 construct: mature capsid protein C from the N-terminus of the dengue virus genome polyprotein; pET3a, E. coli BL21(DE3)pLysS, heparin column; symmetric homodimer; printed residues reach R100
T1 sequence (P14340 1-100): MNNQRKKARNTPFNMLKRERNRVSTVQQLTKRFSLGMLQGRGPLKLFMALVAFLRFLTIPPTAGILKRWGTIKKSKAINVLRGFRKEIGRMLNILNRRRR

Q: For N=C(N)NN=Cc1cc(Cl)ccc1O [compound 1, 5-chloro-salicylaldehyde-guanylhydrazone], which Kd is on record?
A: The Kd was 18 ± 4 µM.

Q: For N=C(N)N/N=C/c1ccc(Br)s1 [compound 4, 5-bromo-thiophene-2-guanylhydrazone], which Kd is on record?
A: The Kd was 20 ± 7 µM.

Q: O/N=C/c1cc(Cl)ccc1O [compound 12, 2-hydroxy-5-chloro-benzyloxime] was tested. Which Kd did it give?
A: The Kd was 23 ± 8 µM.
